Assay results taken from US20210323977A1, “PYRROLIDINYL AMIDE COMPOUNDS FOR THE TREATMENT OF AUTOIMMUNE DISEASE” (Hoffmann-La Roche Inc., priority 2018, published 2021).

The compounds below were run against T1, human TLR9 (Homo sapiens, UniProt Q9NR96) (assay: HEK293-Blue-hTLR-9 cells assay). Conditions: HEK293-Blue-hTLR9 cells, SEAP reporter, ODN2006 stimulation, 20 hrs.
T1 sequence (Q9NR96 26-1032): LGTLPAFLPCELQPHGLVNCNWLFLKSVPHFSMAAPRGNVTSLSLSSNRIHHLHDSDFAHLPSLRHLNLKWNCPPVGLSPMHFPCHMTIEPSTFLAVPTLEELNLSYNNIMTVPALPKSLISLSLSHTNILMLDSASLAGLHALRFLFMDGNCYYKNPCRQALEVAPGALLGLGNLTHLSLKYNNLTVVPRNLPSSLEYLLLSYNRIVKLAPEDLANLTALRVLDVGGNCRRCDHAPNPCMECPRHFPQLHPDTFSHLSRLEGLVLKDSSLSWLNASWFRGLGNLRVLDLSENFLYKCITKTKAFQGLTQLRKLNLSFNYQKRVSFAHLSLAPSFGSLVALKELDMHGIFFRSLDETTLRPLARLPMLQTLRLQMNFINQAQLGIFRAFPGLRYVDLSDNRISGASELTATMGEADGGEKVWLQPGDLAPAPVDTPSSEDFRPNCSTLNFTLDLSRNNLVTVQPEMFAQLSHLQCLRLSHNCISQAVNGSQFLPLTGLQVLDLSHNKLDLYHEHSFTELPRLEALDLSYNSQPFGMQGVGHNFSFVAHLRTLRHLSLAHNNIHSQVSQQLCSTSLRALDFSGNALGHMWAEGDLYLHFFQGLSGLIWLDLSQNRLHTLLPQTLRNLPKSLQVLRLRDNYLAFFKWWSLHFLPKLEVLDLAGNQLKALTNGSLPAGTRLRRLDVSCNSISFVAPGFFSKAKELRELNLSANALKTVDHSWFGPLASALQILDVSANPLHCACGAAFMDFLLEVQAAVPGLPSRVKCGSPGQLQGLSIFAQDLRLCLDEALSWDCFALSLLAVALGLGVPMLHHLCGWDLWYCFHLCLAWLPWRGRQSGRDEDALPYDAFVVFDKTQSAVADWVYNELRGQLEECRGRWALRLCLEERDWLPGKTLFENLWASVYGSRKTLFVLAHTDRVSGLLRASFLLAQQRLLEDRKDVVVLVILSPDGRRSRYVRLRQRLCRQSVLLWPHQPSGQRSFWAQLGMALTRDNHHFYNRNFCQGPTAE
Assay type: cell-based
Text: HEK293-Blue-hTLR-9 Cells Assay:
A stable HEK293-Blue-hTLR-9 cell line was purchased from InvivoGen (Cat. #: hkb-htlh9, San Diego, Calif., USA). These cells were originally designed for studying the stimulation of human TLR9 by monitoring the activation of NF-κB. A SEAP (secreted embryonic alkaline phosphatase) reporter gene was placed under the control of the IFN-β minimal promoter fused to five NF-κB and AP-1-binding sites. The SEAP was induced by activating NF-κB and AP-1 via stimulating HEK-Blue hTLR9 cells with TLR9 ligands. Therefore the reporter expression was declined by TLR9 antagonist under the stimulation of a ligand, such as ODN2006 (Cat. #: tlrl-2006-1, Invivogen, San Diego, Calif., USA), for incubation of 20 hrs. The cell culture supernatant SEAP reporter activity was determined using QUANTI-Blue™ kit (Cat. #: rep-qb1, Invivogen, San Diego, Calif., USA) at a wavelength of 640 nm, a detection medium that turns purple or blue in the presence of alkaline phosphatase.
HEK293-Blue-hTLR9 cells were incubated at a density of 250,000-450,000 cells/mL in a volume of 170 μL in a 96-well plate in Dulbecco's Modified Eagle's medium (DMEM) containing 4.5 g/L glucose, 50 U/mL penicillin, […], […], 2 mM L-glutamine, 10% (v/v) heat-inactivated fetal bovine serum with addition of 20 sL test compound in a serial dilution in the presence of final DMSO at 1% and 10 sL of 20 uM ODN2006 in above DMEM, perform incubation under 37° C. in a CO2 incubator for 20 hrs. Then 20 sL of the supernatant from each well was incubated with 180 μL Quanti-blue substrate solution at 37° C. for 2 hrs and the absorbance was read at 620-655 nm using a spectrophotometer. The signalling pathway that TLR9 activation leads to downstream NF-x3B activation has been widely accepted, and therefore similar reporter assay was modified for evaluating TLR9 antagonist.

SMILES | IC50 [µM]
N[C@@H]1CCC[C@H](NC(=O)C2CN(c3ccc(C(F)(F)F)c4nccnc34)CC23CC3)C1 (relative stereo) [Example 43, Cis-N-(3-aminocyclohexyl)-5-[8-(trifluoromethyl)quinoxalin-5-yl]-5-azaspiro[2.4]heptane-7-carboxamide] | 17.9
CN1CCC(NC(=O)C2CN(c3ccc(C#N)c4nccnc34)CC23CC3)CC1 (single isomer, unassigned) [Example 7A, 5-(8-Cyanoquinoxalin-5-yl)-N-(1-methyl-4-piperidyl)-5-azaspiro[2.4]heptane-7-carboxamide] | 3.2
N#Cc1ccc(N2CC(C(=O)NC[C@H]3CNCCO3)C3(CC3)C2)c2nccnc12 (single isomer, unassigned) [Example 70B] | 2.8
CN1CCC(NC(=O)[C@@H]2CN(c3ccc(C#N)c4ncccc34)C[C@H]2C(F)F)CC1 (relative stereo) [Example 40, Trans-1-(8-cyano-5-quinolyl)-4-(difluoromethyl)-N-(1-methyl-4-piperidyl)pyrrolidine-3-carboxamide] | 6.9
N#Cc1ccc(N2CC(C(=O)NC3CCCNCC3)C(C(F)(F)F)C2)c2cccnc12 (single isomer, unassigned) [Example 30A, N-(azepan-4-yl)-1-(8-cyano-5-quinolyl)-4-(trifluoromethyl)pyrrolidine-3-carboxamide] | 17.5
CC(C)[C@@H]1CN(c2ccc(C#N)c3ncccc23)C[C@H]1C(=O)NC1CCN(C)CC1 (relative stereo) [Example 37, Trans-1-(8-cyano-5-quinolyl)-4-isopropyl-N-(1-methyl-4-piperidyl)pyrrolidine-3-carboxamide] | 5.2
C[C@@H]1CN(c2ccc(C#N)c3ncccc23)C[C@H]1C(=O)N1CCC2(CCNCC2)CC1 (relative stereo) [Example 32, Trans-5-[3-(3,9-diazaspiro[5.5]undecane-3-carbonyl)-4-methyl-pyrrolidin-1-yl]quinoline-8-carbonitrile] | 2.4
C[C@@H]1CN(c2ccc(C#N)c3ncccc23)C[C@H]1C(=O)N1CCC2(CCNC2)C1 (relative stereo) [Example 53, Trans-5-[3-(2,7-diazaspiro[4.4]nonane-2-carbonyl)-4-methyl-pyrrolidin-1-yl]quinoline-8-carbonitrile] | 2.6
C[C@H]1CN(c2ccc(C(F)(F)F)c3nccnc23)C[C@@H]1C(=O)NC1CCN(C)CC1 [Example 5, (3R,4R)-4-methyl-N-(1-methyl-4-piperidyl)-1-[8-(trifluoromethyl)quinoxalin-5-yl]pyrrolidine-3-carboxamide] | 10.4
CN1CC(NC(=O)C2CN(c3ccc(C(F)(F)F)c4nccnc34)CC23CC3)C2(CC2)C1 (stereo not shown) [Example 20, N-(5-methyl-5-azaspiro[2.4]heptan-7-yl)-5-[8-(trifluoromethyl)quinoxalin-5-yl]-5-azaspiro[2.4]heptane-7-carboxamide] | 13.1
CN1CCC(NC(=O)C2CN(c3ccc(C#N)c4ncccc34)CC2C(F)(F)F)CC1 (stereo not shown) [Example 18, 1-(8-Cyano-5-quinolyl)-N-(1-methyl-4-piperidyl)-4-(trifluoromethyl)pyrrolidine-3-carboxamide] | 10.8
C[C@@H]1CN(c2ccc(C#N)c3ncccc23)C[C@H]1C(=O)N[C@H]1CNC[C@H]1F [Example 56, Trans-1-(8-cyano-5-quinolyl)-N-[(3S,4R)-4-fluoropyrrolidin-3-yl]-4-methyl-pyrrolidine-3-carboxamide] | 18.6
Cc1ccc(N2C[C@H](C(=O)NC3CCN(C)CC3)[C@@H](C)C2)c2nccnc12 [Example 33, (3R,4R)-4-Methyl-N-(1-methyl-4-piperidyl)-1-(8-methylquinoxalin-5-yl)pyrrolidine-3-carboxamide] | 30.2
N[C@H]1CC[C@@H](NC(=O)C2CN(c3ccc(C(F)(F)F)c4nccnc34)CC23CC3)CC1 (stereo partly shown) [Example 39, N-(4-Aminocyclohexyl)-5-[8-(trifluoromethyl)quinoxalin-5-yl]-5-azaspiro[2.4]heptane-7-carboxamide] | 21.1
O=C(NC1CC2COCC(C1)N2)C1CN(c2ccc(C(F)(F)F)c3nccnc23)CC12CC2 (stereo not shown) [Example 6, N-(3-oxa-9-azabicyclo[3.3.1]nonan-7-yl)-5-[8-(trifluoromethyl)quinoxalin-5-yl]-5-azaspiro[2.4]heptane-7-carboxamide] | 1.4
N#Cc1ccc(N2CC(C(=O)NC[C@H]3CNCCO3)C3(CC3)C2)c2nccnc12 (single isomer, unassigned) [Example 70A] | 6.9
CN1CCC(NC(=O)[C@@H]2CN(c3ccc(Cl)c4ncccc34)C[C@H]2C(F)(F)F)CC1 (relative stereo) [Example 46, Trans-1-(8-chloro-5-quinolyl)-N-(1-methyl-4-piperidyl)-4-(trifluoromethyl)pyrrolidine-3-carboxamide] | 15.6
CN1CCC(NC(=O)C2CN(c3ccc(C(F)(F)F)c4nccnc34)CC23CC3)CC1 (stereo not shown) [Example 11, N-(1-methyl-4-piperidyl)-5-[8-(trifluoromethyl)quinoxalin-5-yl]-5-azaspiro[2.4]heptane-7-carboxamide] | 1
C[C@H]1CN(c2ccc(Cl)c3ncccc23)C[C@@H]1C(=O)NC1CCN(C)CC1 [Example 50, (3R,4R)-1-(8-chloro-5-quinolyl)-4-methyl-N-(1-methyl-4-piperidyl)pyrrolidine-3-carboxamide] | 3.4
CN1CCC(NC(=O)[C@H]2CN(c3ccc(C#N)c4ncccc34)C[C@@H]2C(F)(F)F)CC1 [Example 4, (3R,4R)-1-(8-cyano-5-quinolyl)-N-(1-methyl-4-piperidyl)-4-(trifluoromethyl)pyrrolidine-3-carboxamide] | 9.9
C[C@@H]1CN(c2ccc(C(F)(F)F)c3nccnc23)C[C@H]1C(=O)NC1CCN(C)CC1 [Example 25, (3S,4S)-4-Methyl-N-(1-methyl-4-piperidyl)-1-[8-(trifluoromethyl)quinoxalin-5-yl]pyrrolidine-3-carboxamide] | 13.9
N[C@@H]1C[C@H](NC(=O)C2CN(c3ccc(C(F)(F)F)c4nccnc34)CC23CC3)[C@@H]2C[C@@H]21 (stereo partly drawn) [Example 36, N-[(1R,2S,4R,5S)-4-amino-2-bicyclo[3.1.0]hexanyl]-5-[8-(trifluoromethyl)quinoxalin-5-yl]-5-azaspiro[2.4]heptane-7-carboxamide] | 21.8
O=C(NC1CC2CCCC(C1)N2)C1CN(c2ccc(C(F)(F)F)c3nccnc23)CC12CC2 (stereo not shown) [Example 10, N-(9-azabicyclo[3.3.1]nonan-3-yl)-5-[8-(trifluoromethyl)quinoxalin-5-yl]-5-azaspiro[2.4]heptane-7-carboxamide] | 9.5
O=C(NC1CC2CNCC(C2)C1)C1CN(c2ccc(C(F)(F)F)c3nccnc23)CC12CC2 (stereo not shown) [Example 15, N-(3-azabicyclo[3.3.1]nonan-7-yl)-5-[8-(trifluoromethyl)quinoxalin-5-yl]-5-azaspiro[2.4]heptane-7-carboxamide] | 7.3
O=C(NC1CC2(CCNCC2)C1)C1CN(c2ccc(C(F)(F)F)c3nccnc23)CC12CC2 (stereo not shown) [Example 34, N-(7-azaspiro[3.5]nonan-2-yl)-5-[8-(trifluoromethyl)quinoxalin-5-yl]-5-azaspiro[2.4]heptane-7-carboxamide] | 16.7
